# Measured values published in patent US20260125375A1 (Pfizer Inc., priority 2022, published 2026).
# Read-outs that look alike come from different tables or passages of the source.
# Legend:
# CBL-B (residues 36-427) = target: T1, CBL-B (residues 36-427) (Homo sapiens, UniProt Q13191); experiment: Ligand Displacement Assay (LDA), HTRF competitive binding against BODIPY-labeled fluorescent tracer, CBL-B; conditions: geometric mean of the number of tests, read-out: CBL-B Ki (nM) GMean
# T1 construct: Purified CBL-B (residues 36-427) and C-CBL (residues 46-435) proteins from baculovirus-infected insect cells; made in house; host or cells: baculovirus-infected insect cells
# Method in brief: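 Terbium-streptavidin donor on BirA-biotinylated, AviTagged protein from baculovirus-infected insect cells; BODIPY tracer as acceptor. Compound titrations were three-fold and duplicated, […] with 2% DMSO final.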
# CBL-B = target: T2, CBL-B (Homo sapiens, UniProt Q13191); experiment: Jurkat HiBit-IL2 assay (c-CBL KO), reporter cell line expressing CBL-B only; type: cell-based; conditions: geometric mean, read-out: C-CBL KO EC50 (nM) GMean
# T2 construct: endogenous in cells; host or cells: Jurkat HiBit-IL2 reporter cells, C-CBL knocked out by CRISPR
# Method in brief: (§1)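 IL-2 secretion was measured by HiBiT luminescence after 1 h compound exposure (0.1% DMSO) and 4 h TCR/CD28 stimulation (final anti-CD3 1 μg/ml, anti-CD28 2 μg/ml, 37 °C) of Jurkat reporters lacking c-CBL or CBL-B. EC50 came from fold-of-effect versus stimulated-only cells, as geometric means across tests.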
# C-CBL = target: T3, C-CBL (Homo sapiens, UniProt P22681); experiment: Jurkat HiBit-IL2 assay (CBL-B KO), reporter cell line expressing C-CBL only; type: cell-based; conditions: geometric mean, read-out: CBL-B KO EC50 (nM) GMean
# T3 construct: endogenous in cells; host or cells: Jurkat HiBit-IL2 reporter cells, CBL-B knocked out by CRISPR
# Method in brief: as §1
# [1] = c-CBL KO (CBL-B only), anti-CD3/anti-CD28 stimulation 4 hours, Table 16a
# [2] = CBL-B KO (C-CBL only), anti-CD3/anti-CD28 stimulation 4 hours, Table 16a
# [3] = C-CBL KO (expressing CBL-B only), Table 16b (further repetition)
# [4] = CBL-B KO (expressing C-CBL only), Table 16b (further repetition)
Structure (SMILES),Ki (CBL-B (residues 36-427)),EC50 (CBL-B; [1]),EC50 (C-CBL; [2]),EC50 (CBL-B; [3]),EC50 (C-CBL; [4])
"CC(c1nc(C(F)(F)F)cc2c(-c3cccc(C4(Cc5nncn5C)COC4)c3)n[nH]c12)N1CCCCC1 (single isomer, unassigned) [Example C21, 3-(3-{3-[(4-methyl-4H-1,2,4-triazol-3-yl)methyl]oxetan-3-yl}phenyl)-7-[(1ξ)-1-(piperidin-1-yl)ethyl]-5-(trifluoromethyl)-1H-pyrazolo[3,4-c]pyridine]",21.3 nM,152 nM,851 nM,,
"Cn1cnnc1CC1(c2cccc(-c3n[nH]c4cnc(C(F)(F)F)cc34)c2)COC1 [Example B1, 3-(3-(3-((4-methyl-4H-1,2,4-triazol-3-yl)methyl)oxetan-3-yl)phenyl)-5-(trifluoromethyl)-1H-pyrazolo[3,4-c]pyridine]",62.7 nM,> 8710 nM,> 9980 nM,,
"C[C@H]1CCCN(Cc2nc(C(F)(F)F)cc3c(-c4cccc([C@H](c5nncn5C)C5CCC5)c4)n[nH]c23)C1 [Example C7, 3-{3-[(R)-cyclobutyl(4-methyl-4H-1,2,4-triazol-3-yl)methyl]phenyl}-7-{[(3S)-3-methylpiperidin-1-yl]methyl}-5-(trifluoromethyl)-1H-pyrazolo[3,4-c]pyridine]",3.7 nM,58 nM,519 nM,,
"C[C@H](NC1CCCC1)c1nc(C(F)(F)F)cc2c(-c3cccc([C@H](c4nncn4C)C4CCC4)c3)n[nH]c12 (single isomer, unassigned) [Example C10]",11.4 nM,233 nM,> 2310 nM,,
"C[C@H](NC1CCC1)c1nc(C(F)(F)F)cc2c(-c3cccc(C4(Cc5nncn5C)COC4)c3)n[nH]c12 [Example F1, N-{(1S)-1-[3-(3-{3-[(4-methyl-4H-1,2,4-triazol-3-yl)methyl]oxetan-3-yl}phenyl)-5-(trifluoromethyl)-1H-pyrazolo[3,4-c]pyridin-7-yl]ethyl}cyclobutanamine]",1.3 nM,8 nM,60 nM,15 nM,56 nM
"CC(C)NC(C)c1nc(C(F)(F)F)cc2c(-c3cccc([C@H](c4nncn4C)C4CCC4)c3)n[nH]c12 (single isomer, unassigned) [Example C35]",3.1 nM,15 nM,172 nM,,
"C[C@H](O)CN[C@@H](C)c1nc(C(F)(F)F)cc2c(-c3cccc([C@H](c4nncn4C)C4CCC4)c3)n[nH]c12 (single isomer, unassigned) [Example D19]",1 nM,9 nM,132 nM,24 nM,157 nM
"C[C@H]1CN([C@@H](C)c2nc(C(F)(F)F)cc3c(-c4cccc(C5(Cc6nncn6C)COC5)c4)n[nH]c23)CCO1 (single isomer, unassigned) [Example D11]",7.4 nM,143 nM,512 nM,,
"C[C@H](N[C@H]1CCC(F)(F)C1)c1nc(C(F)(F)F)cc2c(-c3cccc(C4(Cc5nncn5C)COC4)c3)n[nH]c12 (single isomer, unassigned) [Example C12]",0.9 nM,4 nM,25 nM,8 nM,16 nM
"C[C@H](c1nc(C(F)(F)F)cc2c(-c3cccc(C4(Cc5nncn5C)COC4)c3)n[nH]c12)N1CC[C@@H](F)C1 (single isomer, unassigned) [Example D10]",6.6 nM,102 nM,595 nM,,
"C[C@H](c1nc(C(F)(F)F)cc2c(-c3cccc(C4(Cc5nncn5C)COC4)c3)n[nH]c12)N1CCO[C@@H](C)C1 (single isomer, unassigned) [Example D12]",15.3 nM,612 nM,973 nM,,
"C[C@H](N[C@@H]1CC[C@@H]1O)c1nc(C(F)(F)F)cc2c(-c3cccc([C@H](c4nncn4C)C4CCC4)c3)n[nH]c12 (single isomer, unassigned) [Example D28]",0.7 nM,1 nM,4 nM,,
"C[C@@H](c1nc(C(F)(F)F)cc2c(-c3cccc(C4(Cc5nncn5C)COC4)c3)n[nH]c12)N1C[C@H](F)[C@@H](F)C1 (single isomer, unassigned) [Example D7]",7.4 nM,80 nM,380 nM,,
"C[C@H](N)c1nc(C(F)(F)F)cc2c(-c3cccc([C@H](c4nncn4C)C4CCC4)c3)n[nH]c12 [Example K12, (1S)-1-[3-{3-[(R)-cyclobutyl(4-methyl-4H-1,2,4-triazol-3-yl)methyl]phenyl}-5-(trifluoromethyl)-1H-pyrazolo[3,4-c]pyridin-7-yl]ethan-1-amine]",19.3 nM,,,895 nM,2080 nM
"C[C@@H](N[C@@H]1CCC[C@@H]1O)c1nc(C(F)(F)F)cc2c(-c3cccc([C@H](c4nncn4C)C4CCC4)c3)n[nH]c12 (single isomer, unassigned) [Example D16]",2.5 nM,18 nM,188 nM,,
"C[C@H](N[C@H]1CCOC1)c1nc(C(F)(F)F)cc2c(-c3cccc([C@H](c4nncn4C)C4CCC4)c3)n[nH]c12 (single isomer, unassigned) [Example C2]",3.9 nM,54 nM,641 nM,,
"Cn1cnnc1CC1(c2cccc(-c3n[nH]c4c(CN[C@H]5CCC(F)(F)C5)nc(C(F)(F)F)cc34)c2)COC1 [Example C38, (1S)-3,3-difluoro-N-{[3-(3-{3-[(4-methyl-4H-1,2,4-triazol-3-yl)methyl]oxetan-3-yl}phenyl)-5-(trifluoromethyl)-1H-pyrazolo[3,4-c]pyridin-7-yl]methyl}cyclopentan-1-amine]",6.9 nM,71 nM,494 nM,,
"C[C@H](NC1CC(F)(F)C1)c1nc(C(F)(F)F)cc2c(-c3cccc([C@H](c4nncn4C)C4CCC4)c3)n[nH]c12 (single isomer, unassigned) [Example D90]",8.9 nM,,,73 nM,313 nM
"C[C@H]1CCCN(Cc2nc(C(F)(F)F)cc3c(-c4cccc(C5(Cc6nncn6C)COC5)c4)n[nH]c23)C1 [Example C30, 7-{[(3S)-3-methylpiperidin-1-yl]methyl}-3-(3-{3-[(4-methyl-4H-1,2,4-triazol-3-yl)methyl]oxetan-3-yl}phenyl)-5-(trifluoromethyl)-1H-pyrazolo[3,4-c]pyridine]",3.6 nM,32 nM,232 nM,,
"CC(NC1CCCC1)c1nc(C(F)(F)F)cc2c(-c3cccc([C@H](c4nncn4C)C4CCC4)c3)n[nH]c12 (stereo partly drawn) [Example C14, N-{(1ξ)-1-[3-{3-[(R)-cyclobutyl(4-methyl-4H-1,2,4-triazol-3-yl)methyl]phenyl}-5-(trifluoromethyl)-1H-pyrazolo[3,4-c]cyclopen-7-yl]ethyl}cyclopentanamine]",0.4 nM,4 nM,26 nM,5 nM,17 nM
"CC1CN(Cc2nc(C(F)(F)F)cc3c(-c4cccc(C5(Cc6nncn6C)COC5)c4)n[nH]c23)CCC1(F)F (single isomer, unassigned) [Example C32, 7-{[(3ξ)-4,4-difluoro-3-methylpiperidin-1-yl]methyl}-3-(3-{3-[(4-methyl-4H-1,2,4-triazol-3-yl)methyl]oxetan-3-yl}phenyl)-5-(trifluoromethyl)-1H-pyrazolo[3,4-c]pyridine]",6.7 nM,83 nM,1190 nM,49 nM,110 nM
"CCNC(C)c1nc(C(F)(F)F)cc2c(-c3cccc([C@H](c4nncn4C)C4CCC4)c3)n[nH]c12 (single isomer, unassigned) [Example C89]",8 nM,,,85 nM,471 nM
C[C@H](N[C@H]1CCC(F)(F)C1)c1nc(C(F)(F)F)cc2c(-c3cccc([C@H](c4nncn4C)C4CCC4)c3)n[nH]c12 [Example C8],1.1 nM,6 nM,44 nM,,
"C[C@@H](NC1CC(F)(F)C1)c1nc(C(F)(F)F)cc2c(-c3cccc([C@H](c4nncn4C)C4CCC4)c3)n[nH]c12 (single isomer, unassigned) [Example D91]",6.2 nM,,,41 nM,238 nM
"Cn1cnnc1[C@@H](c1cccc(-c2n[nH]c3c(CN[C@H]4CCC(F)(F)C4)nc(C(F)(F)F)cc23)c1)C1CCC1 (single isomer, unassigned) [Example G1]",11 nM,70 nM,775 nM,,
"CC(C)NC(C)c1nc(C(F)(F)F)cc2c(-c3cccc([C@H](c4nncn4C)C4CCC4)c3)n[nH]c12 (single isomer, unassigned) [Example C34]",8.9 nM,67 nM,892 nM,86 nM,428 nM
